Results from patent US10077247B2, “Tricyclic spiro compound” (ONO PHARMACEUTICAL CO., LTD., priority 2015, dated 2018).

Experiments:
rat EP4 receptor = rat EP4 receptor (Rattus norvegicus (Rat), UniProt P43114); assay: EP4 antagonistic activity measurement using prostanoid receptor subtype expressing cells (cAMP); type: cell-based; conditions: CHO cells expressing rat EP4 receptor; inhibition of cAMP production by PGE2 10 nM
Method: CHO cells expressing rat EP4 receptor subtypes were prepared according to the methods of Nishigaki et al. (FEBS Letters, Vol. 364, p. 339-341, 1995), and used for experiment. Cultured subconfluent cells were detached, and suspended in an assay medium (MEM containing 1 mmol/L IBMX, 1% HSA) in a concentration of 1×10^6 cells/mL. For reaction, PGE2 was added to the cell suspension (25 μL) in a final concentration of 10 nmol/L, either alone or as a 25-μL PGE2 solution containing the test compound. After 30 minutes of reaction at room temperature, the amount of cAMP in the cells was quantified according to the method in the descriptions of the cAMP assay kit (CISBIO).
The antagonistic effect (IC50 value) of the test compound was calculated as a value that represents an inhibition rate against a reaction with PGE2 alone at 10 nM, a concentration that produces a submaximal cAMP producing effect.

[1] = test system: mouse colorectal cancer cell line CT26; assay: Anti-tumor effect in allograft model of mouse colorectal cancer cell line CT26; type: in vivo; conditions: 10 mg/kg orally, twice a day, Balb/C mouse, 21 days from transplant
Method: The anti-tumor effect of the present compound was evaluated in an allograft model of the mouse colorectal cancer cell line CT26. CT26 was cultured in a CO2 incubator, using an RPMI-1640 medium containing 10 vol % inactivated fetal bovine serum (FBS), 100 units/mL of penicillin, and 100 µg/mL of streptomycin. On the day of transplant, CT26 was harvested after removing the culture supernatant, and washing the cells with phosphate buffer (hereinafter, “PBS”). The harvested CT26 cells were suspended in Hank's buffer to obtain transplant cells. The transplant cells (3×10^5) were then subcutaneously transplanted to the right back of a female Balb/C mouse (Charles River Laboratories Japan Inc.) under anesthesia. The present compound was orally administered in a dose of 10 mg/kg, once on the day of transplant, and twice a day from the next day. For the control group, distilled water was administered for the same duration as in the present compound-administered group. The tumor volume (mm^3) was determined by calculating a relative tumor volume from the measured tumor lengths along the minor axis and major axis using a digital caliper, according to the following formulae 1 and 2. Tumor volume=[(minor axis)^2×major axis]/2 Relative tumor volume=medium value of tumor volumes of each group after 21 days from transplant/medium value of tumor volume of control group after 21 days from transplant

[2] = Pharmacokinetics test (hepatic microsome stability test); conditions: human hepatic microsome 1 mg/mL, 37° C., 60 min, 1 μmol/L

rat EP4 receptor, sequence (P43114 whole entry): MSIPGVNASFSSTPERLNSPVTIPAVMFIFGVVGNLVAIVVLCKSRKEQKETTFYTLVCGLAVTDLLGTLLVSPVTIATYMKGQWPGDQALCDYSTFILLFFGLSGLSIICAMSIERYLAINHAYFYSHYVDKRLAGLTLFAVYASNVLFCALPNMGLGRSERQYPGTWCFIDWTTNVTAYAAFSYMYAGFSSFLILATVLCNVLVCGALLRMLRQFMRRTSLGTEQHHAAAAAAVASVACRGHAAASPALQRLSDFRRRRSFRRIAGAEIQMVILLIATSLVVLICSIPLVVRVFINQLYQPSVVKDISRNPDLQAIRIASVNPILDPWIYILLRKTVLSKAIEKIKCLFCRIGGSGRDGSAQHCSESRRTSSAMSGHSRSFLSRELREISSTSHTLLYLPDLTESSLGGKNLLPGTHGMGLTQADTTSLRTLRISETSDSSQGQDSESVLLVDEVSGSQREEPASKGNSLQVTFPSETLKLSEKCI

Row | Compound | IC50 (rat EP4 receptor) | tumor growth inhibitory effect (relative tumor volume, FIG. 1) [1] | Remaining rate (%) [2]
1 | CC(C)NC(=O)c1ccc2c(c1)[C@]1(CCO2)C[C@H]1C(=O)Nc1cc(C#N)ccc1CCCC(=O)O [Example 2-13, 4-[4-Cyano-2-({[(2′R,4S)-6-(isopropylcarbamoyl)-2,3-dihydrospiro[chromene-4,1′-cyclopropan]-2′-yl]carbonyl}amino)phenyl]butanoic acid] | 7.8 nM | tumor growth inhibitory effect | 100%
2 | CNC(=O)c1ccc2c(c1)[C@]1(CC2)C[C@H]1C(=O)Nc1cc(C#N)ccc1CCCC(=O)O [Example 18-1, 4-[4-Cyano-2-({[(1R,2R)-6′-(methylcarbamoyl)-2′,3′-dihydrospiro[cyclopropane-1, 1′-inden]-2-yl]carbonyl}amino)phenyl]butanoic acid] | 1.2 nM |  | 90%
3 | Cn1ccc(NC(=O)c2ccc3c(c2)[C@]2(CCO3)C[C@H]2C(=O)Nc2cc(C#N)ccc2CCCC(=O)O)n1 [Example 2-9, 4-{4-Cyano-2-[({(2′R,4S)-6-[(1-methyl-1H-pyrazol-yl)carbamoyl]-2,3-dihydrospiro[chromene-4,1′-cyclopropan]-2′-yl}carbonyl)amino]phenyl}butanoic acid] | 4.5 nM |  | 92%
4 | COCCNC(=O)c1ccc2c(c1)[C@]1(CCO2)C[C@H]1C(=O)Nc1cc(C#N)ccc1CCCC(=O)O [Example 2-2, 4-{4-Cyano-2-[({(2′R,4S)-6-[(2-methoxyethyl)carbamoyl]-2,3-dihydrospiro[chromene-4,1′-cyclopropan]-2′-yl}carbonyl)amino]phenyl}butanoic acid] | 5.3 nM | tumor growth inhibitory effect | 97%
5 | N#Cc1ccc(CCCC(=O)O)c(NC(=O)[C@@H]2C[C@]23CCOc2ccc(-c4cccnn4)cc23)c1 [Example 10-5, 4-[4-Cyano-2-({[(2′R,4S)-6-(3-pyridazinyl)-2,3-dihydrospiro[chromene-4, 1′-cyclopropan]-2′-yl]carbonyl}amino)phenyl]butanoic acid] | 4.1 nM |  | 86%
6 | Cn1cc(-c2ccc3c(c2)[C@]2(CCO3)C[C@H]2C(=O)Nc2cc(C#N)ccc2CCCC(=O)O)nn1 [Example 10-4, 4-[4-Cyano-2-({[(2′R,4S)-6-(1-methyl-1H-1,2,3-triazol-4-yl)-2,3-dihydrospiro[chromene-4,1′-cyclopropan]-2′-yl]carbonyl}amino)phenyl]butanoic acid] | 3.5 nM |  | 73%
7 | CNC(=O)c1cc2c(cc1OC)OCC[C@]21C[C@H]1C(=O)Nc1cc(C#N)ccc1CCCC(=O)O [Example 33-1, 4-[4-Cyano-2-({[(2′R,4S)-7-methoxy-6-(methylcarbamoyl)-2,3-dihydrospiro[chromene-4,1′-cyclopropan]-2′-yl]carbonyl}amino)phenyl]butanoic acid] | 10 nM |  | 98%
8 | N#Cc1ccc(CCCC(=O)O)c(NC(=O)[C@@H]2C[C@]23COc2ccc(-c4cccnc4)cc23)c1 [Example 36, 4-[4-Cyano-2-({[(2′R,3S)-5-(3-pyridinyl)spiro[1-benzofuran-3,1′-cyclopropan]-2′-yl]carbony}amino)phenyl]butanoic acid] | 4.5 nM |  | 93%
9 | CNC(=O)c1ccc2c(c1)[C@]1(CO2)C[C@H]1C(=O)Nc1cc(C#N)ccc1CCCC(=O)O [Example 37-1, 4-[4-Cyano-2-({[(2′R,3S)-5-(methylcarbamoyl)spiro[1-benzofuran-3,1′-cyclopropan]-2′-yl]carbonyl}amino)phenyl]butanoic acid] | 7.2 nM |  | 77%
10 | CNC(=O)c1ccc2c(c1)[C@]1(CCO2)C[C@H]1C(=O)Nc1cc(C#N)ccc1CCCC(=O)O [Example 1, 4-[4-Cyano-2-({[(2′R,4S)-6-(methylcarbamoyl)-2,3-dihydrospiro[chromene-4,1′-cyclopropan]-2′-yl]carbonyl}amino)phenyl]butanoic acid] | 2.5 nM |  | 94%
11 | Cc1noc(-c2ccc3c(c2)[C@]2(CCO3)C[C@H]2C(=O)Nc2cc(C#N)ccc2CCCC(=O)O)n1 [Example 5, 4-[4-Cyano-2-({[(2′R,4S)-6-(3-methyl-1,2,4-oxadiazol-5-yl)-2,3-dihydrospiro[chromene-4,1′-cyclopropan]-2′-yl]carbonyl}amino)phenyl]butanoic acid] | 2.8 nM |  | 80%
